“And” between values parts separate entries of the source, which are not always exact repeats. Equal values may be shown once.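 Step 1: Grow cells in 96-well plates. Step 2: Expose to compound for 48 hours at 5 concentrations. Step 3: Interpolate endpoints linearly; if unreached, use highest concentration. GI50 is the concentration that inhibits growth by half. The concentration for full growth arrest is given as TGI.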
Test system: HOP-92 NSCLC
Assay: NCI anticancer screen, dose series, 48 h

Compound	GI50	TGI
C[As](C)SC1OC(CO)C(O)C1O (configuration not stated)	0.0884 µM	0.955 µM
CNC(=S)N(C)C(=S)Nn1c(=O)c(C)nn(C)c1=S	–	> 100 µM
CCCCCCCCCC/C=C/CC(=O)SCCNC(=O)CCNC(=O)[C@@H](O)C(C)(C)COP(=O)(O)OP(=O)(O)OCC1OC(n2cnc3c(N)ncnc32)C(O)C1OP(=O)(O)O (some centres not stated)	–	> 10 µM
Cn1c(=O)c2c(nc(Nc3cc(=O)[nH]c(=O)[nH]3)n2Cc2ccccc2)n(C)c1=O	7.51 µM	> 100 µM
COc1ccc2c(c1)CCC1C2CC[C@@]2(C)C1CC1=CC(COC(C)=O)C3C(=O)c4ccccc4C(=O)C3C12 (some centres not stated)	1.43 µM	49.7 µM
O=C1CCCC/C(=C/c2ccccc2)N1	–	> 100 µM
O=C1CN=C(C[N+](=O)[O-])c2ccccc21	–	> 100 µM
CC/C(=C(/c1ccc(OCCN(C)C)cc1)c1ccc(OC(=O)CCCCC(=O)c2c(C)[nH]c(/C=C3\N=C(c4ccc[nH]4)C=C3OC)c2C)cc1)c1ccccc1	1.12 µM	6.28 µM
CC[C@]12C=CCN3CC[C@@]4(c5ccc(OC)cc5N(C)[C@H]4[C@@](O)(C(=O)OC)[C@@H]1OC(=O)CCC[P+](c1ccccc1)(c1ccccc1)c1ccccc1)[C@@H]32	0.0934 µM and 0.241 µM	0.78 µM and 0.946 µM
CC(=O)OC1Oc2ccccc2-c2oc(=O)c(-c3cc(=O)oc4cc(O)ccc34)cc21 (configuration not stated)	14.1 µM	40.9 µM
CC(C)(C)C(=O)OCOP(=O)(OCOC(=O)C(C)(C)C)C1CCCN(O)C1=O (configuration not stated)	0.695 µM	51.5 µM
CC(=O)O.CC(=O)O.CC(=O)O.CC(=O)O.CC(=O)O.CC(=O)O.O.[Ti].[Ti]	> 100 µM	> 100 µM
COC(=O)C1=C(c2ccc3c(c2)OCO3)O[C@H](c2cc(OC)c(OC)c(OC)c2)[C@H]1COC(C)=O	–	36 µM
Cc1ccc(Cl)cc1Nc1nc(C(F)(F)F)ccc1C(=O)N1CCN(c2ccc(F)cc2)CC1	12.5 µM	30.4 µM
COc1ccc(OC)c(NC(=O)C(=O)NNC(=O)c2sc(NNC(C)=O)nc2C)c1	–	39.2 µM
CCCCc1c(OC)cc(O)c2c1C(=O)c1[nH]c(C(=O)O)c(O)c(=O)c1C2=O	–	> 100 µM
O=C(Nc1ccc(OS(=O)(=O)c2ccccc2)cc1)C12CC3CC(CC(C3)C1)C2	1.87 µM	> 100 µM
O=[N+]([O-])c1nccn1CC(O)c1ccc(F)cc1 (configuration not stated)	–	> 100 µM
COc1ccc(NC(=O)CCc2cc(-c3ccc(O)c(OC)c3)nc(NC#N)n2)cc1	–	> 100 µM
COC(=O)c1cc2c3ccccc3n(C(C)=O)c2cn1	–	> 100 µM
COc1ccc(N(C)c2ncnc3occ(C)c23)cc1	0.0625 µM	> 100 µM
COCCOc1cc(F)c2c(Nc3ccc(NC(=O)Cn4cc(C(C)C)nn4)cc3)ncnc2c1	5.99 µM	92 µM
O=C(c1ccccc1)c1cc(Cl)ccc1OCCCCN1CCN(CCCCOc2ccc(Cl)cc2C(=O)c2ccccc2)CC1	2.53 µM	13 µM
Clc1ccc2c(NCCCNc3nccc(Nc4ccc(Br)cc4)n3)ccnc2c1	1.32 µM	3.23 µM
O=c1c2ccccc2[se]n1-c1cccnc1	–	36.1 µM

Test system: HT29 colon
Assay: NCI anticancer screen, dose series, 48 h

Compound	TGI	GI50
O=C(CCCn1ccnc1[N+](=O)[O-])NCCn1cncc1[N+](=O)[O-]	> 100 µM	–
Cn1cc(C2=C(c3ccc4ccccc4c3)C(=O)NC2=O)c2ccccc21	> 25 µM	9.87 µM
C[As](C)SC1OC(CO)C(O)C1O (configuration not stated)	> 100 µM	0.668 µM
CNC(=S)N(C)C(=S)Nn1c(=O)c(C)nn(C)c1=S	> 100 µM	–
CCCCCCCCCC/C=C/CC(=O)SCCNC(=O)CCNC(=O)[C@@H](O)C(C)(C)COP(=O)(O)OP(=O)(O)OCC1OC(n2cnc3c(N)ncnc32)C(O)C1OP(=O)(O)O (some centres not stated)	> 10 µM	–
Cn1c(=O)c2c(nc(Nc3cc(=O)[nH]c(=O)[nH]3)n2Cc2ccccc2)n(C)c1=O	> 100 µM	> 100 µM
COc1ccc2c(c1)CCC1C2CC[C@@]2(C)C1CC1=CC(COC(C)=O)C3C(=O)c4ccccc4C(=O)C3C12 (some centres not stated)	> 100 µM	94.9 µM
O=C1CCCC/C(=C/c2ccccc2)N1	> 100 µM	–
O=C1CN=C(C[N+](=O)[O-])c2ccccc21	> 100 µM	–
CC/C(=C(/c1ccc(OCCN(C)C)cc1)c1ccc(OC(=O)CCCCC(=O)c2c(C)[nH]c(/C=C3\N=C(c4ccc[nH]4)C=C3OC)c2C)cc1)c1ccccc1	14.7 µM	2.99 µM
CC[C@]12C=CCN3CC[C@@]4(c5ccc(OC)cc5N(C)[C@H]4[C@@](O)(C(=O)OC)[C@@H]1OC(=O)CCC[P+](c1ccccc1)(c1ccccc1)c1ccccc1)[C@@H]32	4.91 µM and 2.78 µM	0.334 µM and 0.403 µM
CC(=O)OC1Oc2ccccc2-c2oc(=O)c(-c3cc(=O)oc4cc(O)ccc34)cc21 (configuration not stated)	> 100 µM	26.4 µM
CC(C)(C)C(=O)OCOP(=O)(OCOC(=O)C(C)(C)C)C1CCCN(O)C1=O (configuration not stated)	8.53 µM	0.335 µM
CC(=O)O.CC(=O)O.CC(=O)O.CC(=O)O.CC(=O)O.CC(=O)O.O.[Ti].[Ti]	> 100 µM	> 100 µM
COC(=O)C1=C(c2ccc3c(c2)OCO3)O[C@H](c2cc(OC)c(OC)c(OC)c2)[C@H]1COC(C)=O	11.5 µM	–
Cc1ccc(Cl)cc1Nc1nc(C(F)(F)F)ccc1C(=O)N1CCN(c2ccc(F)cc2)CC1	23.9 µM	10.7 µM
COc1ccc(OC)c(NC(=O)C(=O)NNC(=O)c2sc(NNC(C)=O)nc2C)c1	> 100 µM	–
CCCCc1c(OC)cc(O)c2c1C(=O)c1[nH]c(C(=O)O)c(O)c(=O)c1C2=O	> 100 µM	–
O=C(Nc1ccc(OS(=O)(=O)c2ccccc2)cc1)C12CC3CC(CC(C3)C1)C2	3.69 µM	0.403 µM
O=[N+]([O-])c1nccn1CC(O)c1ccc(F)cc1 (configuration not stated)	> 100 µM	–
COc1ccc(NC(=O)CCc2cc(-c3ccc(O)c(OC)c3)nc(NC#N)n2)cc1	> 100 µM	–
COC(=O)c1cc2c3ccccc3n(C(C)=O)c2cn1	> 100 µM	–
COc1ccc(N(C)c2ncnc3occ(C)c23)cc1	16.3 µM	< 0.01 µM
COCCOc1cc(F)c2c(Nc3ccc(NC(=O)Cn4cc(C(C)C)nn4)cc3)ncnc2c1	> 100 µM	> 100 µM
O=C(c1ccccc1)c1cc(Cl)ccc1OCCCCN1CCN(CCCCOc2ccc(Cl)cc2C(=O)c2ccccc2)CC1	7.66 µM	2.59 µM
Clc1ccc2c(NCCCNc3nccc(Nc4ccc(Br)cc4)n3)ccnc2c1	2.67 µM	1.26 µM
Cc1ccccc1N1C(=O)/C(=C/c2ccc(N(CCC#N)CCC#N)cc2)N=C1c1cc([N+](=O)[O-])ccc1Cl	> 100 µM	–
CC(C)=C[C@@H]1C[C@H](C)[C@H]2CC[C@H](C)C3=C2[C@](O)(OC3=O)[C@]1(C)O	> 100 µM	> 100 µM
O=c1c2ccccc2[se]n1-c1cccnc1	> 100 µM	–

Test system: OVCAR-4 ovarian
Assay: NCI anticancer screen, dose series, 48 h

Compound	TGI	GI50
O=C(CCCn1ccnc1[N+](=O)[O-])NCCn1cncc1[N+](=O)[O-]	> 100 µM	–
Cn1cc(C2=C(c3ccc4ccccc4c3)C(=O)NC2=O)c2ccccc21	> 25 µM	> 25 µM
C[As](C)SC1OC(CO)C(O)C1O (configuration not stated)	16.3 µM	1.69 µM
CNC(=S)N(C)C(=S)Nn1c(=O)c(C)nn(C)c1=S	> 100 µM	–
CCCCCCCCCC/C=C/CC(=O)SCCNC(=O)CCNC(=O)[C@@H](O)C(C)(C)COP(=O)(O)OP(=O)(O)OCC1OC(n2cnc3c(N)ncnc32)C(O)C1OP(=O)(O)O (some centres not stated)	> 10 µM	–
Cn1c(=O)c2c(nc(Nc3cc(=O)[nH]c(=O)[nH]3)n2Cc2ccccc2)n(C)c1=O	> 100 µM	46.9 µM
COc1ccc2c(c1)CCC1C2CC[C@@]2(C)C1CC1=CC(COC(C)=O)C3C(=O)c4ccccc4C(=O)C3C12 (some centres not stated)	> 100 µM	> 100 µM
O=C1CCCC/C(=C/c2ccccc2)N1	> 100 µM	–
O=C1CN=C(C[N+](=O)[O-])c2ccccc21	> 100 µM	–
CC/C(=C(/c1ccc(OCCN(C)C)cc1)c1ccc(OC(=O)CCCCC(=O)c2c(C)[nH]c(/C=C3\N=C(c4ccc[nH]4)C=C3OC)c2C)cc1)c1ccccc1	22.3 µM	4.39 µM
CC[C@]12C=CCN3CC[C@@]4(c5ccc(OC)cc5N(C)[C@H]4[C@@](O)(C(=O)OC)[C@@H]1OC(=O)CCC[P+](c1ccccc1)(c1ccccc1)c1ccccc1)[C@@H]32	6.1 µM and 2.32 µM	0.317 µM and 0.322 µM
CC(=O)OC1Oc2ccccc2-c2oc(=O)c(-c3cc(=O)oc4cc(O)ccc34)cc21 (configuration not stated)	> 100 µM	25 µM
CC(C)(C)C(=O)OCOP(=O)(OCOC(=O)C(C)(C)C)C1CCCN(O)C1=O (configuration not stated)	59.7 µM	0.508 µM
CC(=O)O.CC(=O)O.CC(=O)O.CC(=O)O.CC(=O)O.CC(=O)O.O.[Ti].[Ti]	> 100 µM	> 100 µM

Source: PubChem BioAssay (NCI)
